Measured values reported in patent US6531456B1, “Gene therapy for the treatment of solid tumors using recombinant adeno-associated virus vectors” (Avigen, Inc., priority 1996, dated 2003).

Key:
[1] = system: human U-251SP glioma cells; assay: In vitro sensitivity of rAAVtk-IRES-hIL2-transduced cells to ganciclovir; assay type: cell-based
Description: More particularly, transduced cells were exposed to varying amounts of GCV to assess their sensitivity to the pro-drug. In the study 1×10^4 human U-251SP glioma cells were incubated for 12 hours with rAAVtk-IRES-hIL2 at MOIs of 0, 3×10^2, 3×10^3, 3×10^4, 3×10^5, and 3×10^6. The transduced cells were then incubated for an additional 72 hours in fresh medium containing serial dilutions of GCV at a final concentration of from 0.1-100 μg/mL.
In order to determine if cells transduced with the HSV-tk gene had enhanced susceptibility to the cytocidal effects of GCV, the following study was carried out. Recombinant AAV virion-transduced cells were exposed to varying amounts of GCV to assess their sensitivity to the drug. Particularly, 1×10^4 human U-251SP glioma cells/well (cultured in 200 μL of complete medium) were incubated with various concentrations of rAAVtk-IRES-hIL2 (at MOIs of 0, 3×10^2, 3×10^3, 3×10^4, 3×10^5, and 3×10^6) for 12 hours. The transduced cells were then incubated for an additional 72 hours in fresh medium containing serial dilutions of GCV at a final concentration of from 0.1-100 μg/mL. The numbers of living cells were then determined using the trypan blue dye exclusion method, and compared with those of nontransduced cells cultured without GCV treatment.

U-251SP cells = assay: In vitro bystander tumoricidal effect, coculture of transduced and non-transduced cells; assay type: cell-based, human; conditions: 4.5 μg/mL ganciclovir, 3 days
Description: FIG. 3 depicts the in vitro cytocidal bystander effect observed in non-transduced cells that were cultured with HSV-tk transduced cells as described in Example 3. Cell co-cultures containing a total of 1×10^4 cells were formed by combining cells that were transduced with rAAVtk-IRES-hIL2 virions at the following ratios: 1:0, 1:1, 1:10, 1:100 and 0:1 (transduced:nontransduced cells). After a 24 hour incubation, the co-cultures were exposed to 4.5 μg/mL of ganciclovir and allowed to incubate for an additional 3 days. Numbers of living cells were counted using the trypan blue dye exclusion method. The Figure indicates % cell survival compared to the cultures containing only non-transduced cells (0:1). The data is presented a mean +/− a standard error deviation based on duplicate experiments.
In order to assess the in vitro bystander tumoricidal effect of HSV-tk transduced cells on neighboring non-transduced cells, the following study was carried out. U-251SP cells were incubated for 12 hours in DMEM medium containing rAAVtk-IRES-hIL2 virions at a MOI of 1.9×10^6. Since this MOI was greater than the MOI determined necessary for 100% transduction by the rAAVlacZ virions (e.g., 3×10^5 as determined above in Example 1), the incubated cells were considered to be 100% transduced. The rAAVtk-IRES-hIL2 transduced cells were cocultured with non-transduced U-251SP cells at ratios of 1:0, 1:1, 1:10, 1:100 and 0:1 (transduced:nontransduced cells) to provide 1×10^4 total cells per well in a 24 well tissue culture plate. 24 hours after the coculture was initiated, 4.5 μg/mL of ganciclovir (DENOSINE® Roche, Basel, Switzerland) was added to each well in fresh media. After 3 days, the numbers of living cells were determined using the trypan blue dye exclusion method.

[2] = 3 patients; cited from earlier work

Nc1nc(O)c2ncn(COC(CO)CO)c2n1 [GCV, ganciclovir]
inhibition ([1]; 4.5 μg/mL of GCV, rAAVtk-IRES-hIL2 at a MOI of 3×10^3): more than 80% | IC50 ([1]; Homo sapiens, Glioma cell, GCV 72 hours, cells exposed to rAAVtk-IRES-hIL2 at a MOI of 3×10^3 or greater, read-out: TCID50): < 0.28 µg/mL | effect on cell growth ([1]; high doses of GCV, non-transduced cells): mild inhibitory effect | tumoricidal effect compared with only non-transduced cells (0:1) (U-251SP cells; 1% rAAVtk-IRES-hIL2-transduced cells (1:100)): 15.1% | tumoricidal effect compared with only non-transduced cells (0:1) (U-251SP cells; 10% rAAVtk-IRES-hIL2-transduced cells (1:10)): 58.1% | sensitivity to GCV killing (U-251SP cells; 50% rAAVtk-IRES-hIL2-transduced cells (1:1)): as sensitive to GCV killing as were cultures containing 100% transduced cells | concentration in the CSF [2]: 310 to 680 ng/mL | concentration in the plasma [2]: 440 to 2200 ng/mL
